Experimental data reported in patent US11524960B2, “Heterobicyclic inhibitors of MAT2A and methods of use for treating cancer” (AGIOS PHARMACEUTICALS, INC., priority 2018, dated 2022).
Where two headings read alike, the source gives them in different places.

Tests used:
HCT116 MTAP+/+ = assay: Inhibition of cellular proliferation (Cell Titer Glo), HCT116 MTAP+/+; format: cell-based, human; conditions: 4 days, IC50 score, read-out: 4 Day Relative Growth Inhibition (MTAP +/+; Example 277)
Protocol: (§1) Test compound impact on cancer cell growth was assessed by treating cancer cells with compound for 4 days and then measuring proliferation using an ATP-based cell proliferation readout (Cell Titer Glo, Promega Corporation).
(§2) In a typical assay an isogenic pair of HCT116 human colon carcinoma cell lines which vary only in MTAP deletion status (HCT116 MTAP+/+ and HCT116 MTAP−/−) were plated in 96-well dishes at appropriate cell density. Following 24 hours, cells were then treated with the candidate MAT2A inhibitor. Prior to addition to cells, the compound was first serially diluted in 100% DMSO, typically as a 3-fold serial dilution starting at 500× top dose with 10 dose points including DMSO only control. Compound was then transferred to a working stock plate in cell culture media by adding 5 μl of compound in DMSO to 495 μl of cell culture media. This working stock was then added to cells via a further 5-fold dilution, by adding 25 μl of working stock to 100 μl of cells in culture media. Following compound addition, cells were incubated at 37° C./5% C02 for 4 days.
(§3) To measure inhibition of cellular proliferation, cells were allowed to equilibrate to room temperature for 30 minutes, and were then treated with 125 μl of Cell Titer Glo reagent. The plate was then covered with aluminum foil and shaken for 15 minutes to ensure complete mixing and full cell lysis. Luminescent signal was then measured using a plate-based luminometer Veritas version 1.9.2 using ATP standard curve to confirm assay reproducibility from run to run. This luminescence measure was converted to a proliferation index by subtracting from each data point the ATP luminescence signal measured from a bank (no cells) well and dividing by the ATP luminescence signal measured in 0.2% DMSO control well adjusted for signal in blank well. Compound activity was then represented as a percentage change in proliferation relative to a within-plate DMSO control against log10 of compound concentration in molar (M) units.

HCT116 MTAP−/− = assay: Inhibition of cellular proliferation (Cell Titer Glo), HCT116 MTAP−/−; format: cell-based, human; conditions: 4 days, IC50 score, read-out: 4 Day Relative Growth Inhibition (MTAP −/−; Example 277)
Protocol: as §1, §2, §3

[1] = test system: SAM in HCT116 human colon carcinoma cell line engineered to delete the MTAP gene (MTAP −/−); assay: Cellular assay of target engagement (SAM) by LC-MS/MS; format: cell-based; conditions: IC50 score, read-out: Cell 72 h SAM Inhibition (MTAP −/−; Example 276)
Protocol: Measurement of MAT2A activity in cells was made by direct quantitation of the abundance of the product of its enzymatic activity, SAM. Cancer cells were treated with candidate MAT2A inhibitors for a suitable incubation period, and the cells were then lysed using a reagent which quenched any further enzyme activity. Soluble metabolites including SAM were collected and SAM itself was directly measured from the lysate using quantitative LC-MS/MS.
A typical assay was performed using an HCT116 human colon carcinoma cell line which was genetically engineered to delete the MTAP gene (commercially available from Horizon Discovery). This cell line was utilized because it was determined that loss of the MTAP gene predicts sensitivity to MAT2A inhibitors. Cells were plated in 96-well dishes at appropriate cell density. Following 24 hours, cells were then treated with the candidate MAT2A inhibitor. Prior to addition to cells, the compound was first serially diluted in 100% DMSO, typically as a 3-fold serial dilution starting at 500× top dose with 10 dose points including DMSO only control. Compound was then transferred to a working stock plate in cell culture media by adding 5 μl of compound in DMSO to 495 μl of cell culture media. This working stock was then added to cells via a further 5-fold dilution, by adding 25 μl of working stock to 100 μl of cells in culture media. Following compound addition, cells were incubated at 37° C./5% CO2 for 72 hrs.
To quantitate SAM levels following compound treatment, cells were gently washed once in Ammonium Carbonate buffer (75 mM at pH 7.4), placed on dry ice, and lysed with metabolite extraction buffer (80% cold methanol and 20% water (v/v) with acetic acid at 1 M final concentration with 200 ng/mL deuterated d3-SAM as internal control). Following centrifugation at 4° C. at 3,200 rpm for 30 minutes, the supernatant was collected and stored at −80° C. until analysis by Liquid Chromatography with tandem Mass Spectrometry (LC-MS/MS). LC-MS/MS analysis was performed using an API6500 Mass Spectrometer (Sciex, Framingham, Mass., USA) operating in positive ion spray mode and equipped with a Waters UPLC Acquity (Waters, Milford, Mass., USA) BEH Amide column. Multiple Reaction Monitoring data was acquired for SAM and the d3-SAM standard, using a mass transition pair at m/z 399.2→250.1 and 402.2→250.1, respectively. In a typical LC-MS/MS analysis, the initial flow rate was 0.5 ml/min of 25% mobile phase A (acetonitrile and water at 5:95 (v/v) with 1% formic acid and 10 mM ammonium acetate) and 75% mobile phase B (acetonitrile and water at 95:5 (v/v) with 1% formic acid and 10 mM ammonium acetate), 0.2-0.5 minutes with 75%-35% mobile phase B, 25%-65% mobile phase A, at 0.5 min 65% mobile phase A and 35% mobile phase B, 1.0-1.1 minutes with 35%-75% mobile phase B, 65%-25% mobile phase A, at 1.1 min 25% mobile phase A and 75% mobile phase B with a total run time of 1.5 minutes.

MAT2A homodimer = biological target: T1, MAT2A homodimer (Homo sapiens, UniProt P31153); assay: Biochemical assay: inhibition of MAT2A (phosphate release, PiColorLock Gold); conditions: MAT2A IC50 score; read-out: Enzyme Inhibition (Example 275)
T1 construct: inferred from Ni sepharose purification and imidazole elution; made in house; host or cells: Sf9 insect cells, recombinant baculovirus (Bac to Bac, pFASTBAC1)
How it was run: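 Phosphate formed alongside SAM was read with PiColorLock Gold and quantified against a potassium phosphate standard curve. Reactions ran 60 min at 25 °C after adding a substrate mix of 500 μM ATP and 400 μM L-methionine (mix concentrations). Compound had first been preincubated 60 min with recombinant Sf9-derived MAT2A homodimer ([…]) in pH 8.0 Tris buffer containing MgCl2, KCl, EDTA and BSA.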

T1 sequence (P31153 whole entry): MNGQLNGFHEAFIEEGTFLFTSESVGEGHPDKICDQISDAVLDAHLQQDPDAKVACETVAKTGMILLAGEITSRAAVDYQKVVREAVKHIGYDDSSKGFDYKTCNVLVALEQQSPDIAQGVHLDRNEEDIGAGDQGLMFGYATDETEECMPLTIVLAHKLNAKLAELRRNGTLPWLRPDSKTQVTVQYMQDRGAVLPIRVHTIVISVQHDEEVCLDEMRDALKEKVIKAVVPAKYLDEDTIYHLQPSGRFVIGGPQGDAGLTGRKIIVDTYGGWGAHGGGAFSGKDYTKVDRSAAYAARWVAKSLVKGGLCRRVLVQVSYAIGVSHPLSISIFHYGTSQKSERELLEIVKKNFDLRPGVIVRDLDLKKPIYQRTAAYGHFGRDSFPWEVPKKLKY

IC50 (HCT116 MTAP+/+; Homo sapiens, HCT-116, 96 h) [nM]	IC50 (HCT116 MTAP−/−; Homo sapiens, HCT-116, 96 h) [nM]	IC50 ([1]; Homo sapiens, HCT-116, 72 h) [nM]	IC50 (MAT2A homodimer) [nM]	IC50 (HCT116 MTAP+/+) [nM]	IC50 (HCT116 MTAP−/−) [nM]	IC50 ([1]; 72 h) [nM]	SMILES
> 10000	< 100	< 100	< 100	–	–	–	CC(C)(O)Cn1cc2cc(-n3cc4cnc(NCC(F)(F)F)nc4c(-c4ccc(Cl)cc4)c3=O)ccc2n1 [Example 101-A]
100 to 10000	< 100	< 100	< 100	–	–	–	Cn1cc2cc(-n3cc4cnc(NCC(F)F)nc4c(-c4ccc(Cl)cc4)c3=O)ccc2n1 [Example 102-A]
> 10000	< 100	< 100	< 100	–	–	–	Cn1cc2cc(-n3cc4cnc(NCC(F)(F)F)nc4c(-c4ccc(Br)cc4)c3=O)ccc2n1 [Example 103-A]
100 to 10000	100 to 10000	< 100	< 100	–	–	–	CCOc1ccc2cn(-c3ccc4nn(C(C)C)cc4c3)c(=O)c(-c3ccc(Cl)cc3)c2n1 [Example 104-A]
100 to 10000	< 100	< 100	< 100	–	–	–	CCOc1ccc2cn(-c3ccc4nn(C)c(C)c4c3)c(=O)c(-c3ccc(Cl)cc3)c2n1 [Example 105-A]
> 10000	100 to 10000	< 100	< 100	–	–	–	CCOc1ccc2cn(-c3ccc4nn(C)nc4c3)c(=O)c(-c3ccc(Cl)cc3)c2n1 [Example 106-A]
–	–	–	< 100	100 to 10000	< 100	< 100	CCOc1ccc2cn(-c3ccc(=O)n(CCS(C)(=O)=O)c3)c(=O)c(-c3ccc(OC(F)F)cc3)c2n1 [Example 107-A]
100 to 10000	< 100	< 100	< 100	–	–	–	CCOc1ccc2cn(-c3ccc4nn(CCS(C)(=O)=O)cc4c3)c(=O)c(-c3ccc(OC(F)F)cc3)c2n1 [Example 108-A]
100 to 10000	< 100	< 100	< 100	–	–	–	CCOc1ccc2cn(-c3ccc4nn(C)cc4c3)c(=O)c(-c3ccc(Br)cc3)c2n1 [Example 109-A]
100 to 10000	< 100	< 100	< 100	–	–	–	Cn1cc2cc(-n3cc4ccc(OCC(F)(F)F)nc4c(-c4ccc(OC(F)F)nc4)c3=O)ccc2n1 [Example 110-A]
100 to 10000	< 100	< 100	< 100	–	–	–	CCOc1ccc2cn(-c3ccc4ncn(C)c4c3)c(=O)c(-c3ccc(NC)nc3)c2n1 [Example 111-A]
100 to 10000	< 100	< 100	< 100	–	–	–	Cn1cnc2ccc(-n3cc4ccc(OCC(F)(F)F)nc4c(-c4ccc(OC(F)(F)F)nc4)c3=O)cc21 [Example 112-A]
100 to 10000	< 100	< 100	< 100	–	–	–	Cn1cc2cc(-n3cc4ccc(OCC(F)(F)F)nc4c(-c4ccc(C5CC5)nc4)c3=O)ccc2n1 [Example 113-A]
100 to 10000	< 100	< 100	< 100	–	–	–	CCOc1ccc2cn(-c3ccc(OC)cc3)c(=O)c(-c3ccc(C)nc3)c2n1 [Example 114-A]
–	< 100	< 100	< 100	–	–	–	CCOc1ccc2cn(-c3ccc4nn(C)cc4c3)c(=O)c(-c3ccc(OC(F)(F)F)nc3)c2n1 [Example 133-A]
–	–	–	< 100	–	–	–	Cn1cnc2ccc(-n3cc4cnc(OCC(F)(F)F)nc4c(-c4ccc(OC(F)F)cc4)c3=O)cc21 [Example 263, 8-(4-(difluoromethoxy)phenyl)-6-(1-methyl-1H-benzo[d]imidazol-6-yl)-2-(2,2,2-trifluoroethoxy)pyrido[4,3-d]pyrimidin-7(6H)-one]
–	–	–	100 to 1000	–	–	–	O=c1c(-c2ccc(OC(F)F)cc2)c2nc(OCC(F)(F)F)ncc2cn1-c1ccc2nc[nH]c2c1 [Example 266, 6-(H-benzo[d]imidazol-6-yl)-8-(4-(difluoromethoxy)phenyl)-2-(2,2,2-trifluoroethoxy)pyrido[4,3-d]pyrimidin-7(6H)-one]
–	–	–	< 100	–	–	–	O=c1c(-c2ccc(C3CC3)cc2)c2nc(OCC(F)(F)F)ncc2cn1-c1ccc2ncccc2c1 [Example 267, 8-(4-cyclopropylphenyl)-6-(quinolin-6-yl)-2-(2,2,2-trifluoroethoxy)pyrido[4,3-d]pyrimidin-7(6H)-one]
–	–	–	< 100	–	–	–	CCOc1ncc2cn(-c3ccc4ncccc4c3)c(=O)c(-c3ccc(OC(F)F)cc3)c2n1 [Example 271, 8-(4-(difluoromethoxy)phenyl)-2-ethoxy-6-(quinolin-6-yl)pyrido[4,3-d]pyrimidin-7(6H)-one]
–	–	–	< 100	–	–	–	O=c1c(-c2ccc(OC(F)F)cc2)c2nc(OC3CC3)ncc2cn1-c1ccc2ncccc2c1 [Example 273, 2-cyclopropoxy-8-(4-(difluoromethoxy)phenyl)-6-(quinolin-6-yl)pyrido[4,3-d]pyrimidin-7(6H)-one]
–	–	–	< 100	–	–	–	O=c1c(-c2ccc(OC(F)F)cc2)c2nc(SCC(F)(F)F)ncc2cn1-c1ccc2ncccc2c1 [Example 274, 8-(4-(difluoromethoxy)phenyl)-6-(quinolin-6-yl)-2-(2,2,2-trifluoroethylthio)pyrido[4,3-d]pyrimidin-7(6H)-one]
